# From article doi:10.1101/2025.11.12.688093v2 (biorxiv, 2026)
# How the values were obtained:
# Assay type in all cases: biochemical
# [1] = target: recombinant CK2 (casein kinase 2) (Homo sapiens, UniProt P68400); assay: Kinase-Glo residual ATP luminescence
# [2] = target: CDK4/CycD1 (Homo sapiens, UniProt P11802); assay: kinase panel, HTRF or ADP-Glo, single dose; conditions: read-out: % inhibition at 1 μM
# [3] = target: CDK9/CycT1 (Homo sapiens, UniProt P50750); assay: kinase panel, HTRF or ADP-Glo, single dose; conditions: read-out: % inhibition at 10 μM
# [4] = target: CDK2/CycE1 (Homo sapiens, UniProt P24941); assay: kinase panel, HTRF or ADP-Glo, single dose; conditions: read-out: % inhibition at 10 μM
# [5] = target: CDK3/CycE1 (Homo sapiens, UniProt Q00526); assay: kinase panel, HTRF or ADP-Glo, single dose; conditions: read-out: % inhibition at 10 μM
# [6] = target: CDK1/CycA2 (Homo sapiens, UniProt P06493); assay: kinase panel, HTRF or ADP-Glo, single dose; conditions: read-out: % inhibition at 10 μM
# Chain of CDK1/CycA2 (P20248 whole entry): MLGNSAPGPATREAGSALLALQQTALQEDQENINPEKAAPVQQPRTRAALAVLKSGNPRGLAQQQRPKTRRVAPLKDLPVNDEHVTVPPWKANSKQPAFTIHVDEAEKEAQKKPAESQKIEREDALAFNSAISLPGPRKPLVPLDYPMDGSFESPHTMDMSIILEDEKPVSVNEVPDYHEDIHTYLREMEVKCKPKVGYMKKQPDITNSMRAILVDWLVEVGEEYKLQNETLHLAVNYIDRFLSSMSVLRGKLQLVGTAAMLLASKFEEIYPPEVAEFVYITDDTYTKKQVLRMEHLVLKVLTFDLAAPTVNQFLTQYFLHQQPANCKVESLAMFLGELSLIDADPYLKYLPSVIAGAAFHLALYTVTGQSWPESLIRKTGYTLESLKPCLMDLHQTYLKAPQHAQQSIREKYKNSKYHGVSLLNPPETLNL
# Chain of CDK1/CycA2 (P06493 whole entry): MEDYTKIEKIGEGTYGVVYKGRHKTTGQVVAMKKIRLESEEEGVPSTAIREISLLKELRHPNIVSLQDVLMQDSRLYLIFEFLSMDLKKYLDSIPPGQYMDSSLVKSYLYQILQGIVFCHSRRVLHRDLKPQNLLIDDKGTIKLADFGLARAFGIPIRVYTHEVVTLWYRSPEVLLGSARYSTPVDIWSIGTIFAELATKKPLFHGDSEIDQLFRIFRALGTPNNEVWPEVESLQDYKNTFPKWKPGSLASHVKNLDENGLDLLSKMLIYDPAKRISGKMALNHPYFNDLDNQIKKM
# Chain of recombinant CK2 (casein kinase 2) (P68400 whole entry): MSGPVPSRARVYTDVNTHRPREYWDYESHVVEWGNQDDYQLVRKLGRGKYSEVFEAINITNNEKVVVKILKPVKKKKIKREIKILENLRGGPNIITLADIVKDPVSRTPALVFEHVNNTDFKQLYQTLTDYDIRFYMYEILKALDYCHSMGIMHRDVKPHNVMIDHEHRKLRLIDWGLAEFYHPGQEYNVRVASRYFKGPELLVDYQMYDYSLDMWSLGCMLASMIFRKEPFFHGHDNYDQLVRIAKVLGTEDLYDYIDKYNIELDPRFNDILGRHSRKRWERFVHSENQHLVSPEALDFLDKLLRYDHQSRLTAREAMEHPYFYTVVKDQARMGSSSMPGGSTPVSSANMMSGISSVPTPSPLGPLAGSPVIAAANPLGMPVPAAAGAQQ
# Chain of recombinant CK2 (casein kinase 2) (P67870 2-215 partner): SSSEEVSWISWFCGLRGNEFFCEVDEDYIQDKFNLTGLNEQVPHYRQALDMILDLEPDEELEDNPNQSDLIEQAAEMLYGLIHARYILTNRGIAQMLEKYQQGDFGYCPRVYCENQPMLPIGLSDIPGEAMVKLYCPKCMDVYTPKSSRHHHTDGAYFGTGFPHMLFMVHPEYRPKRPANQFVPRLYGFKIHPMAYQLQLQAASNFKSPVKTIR
# Chain of CDK4/CycD1 (P11802 2-303): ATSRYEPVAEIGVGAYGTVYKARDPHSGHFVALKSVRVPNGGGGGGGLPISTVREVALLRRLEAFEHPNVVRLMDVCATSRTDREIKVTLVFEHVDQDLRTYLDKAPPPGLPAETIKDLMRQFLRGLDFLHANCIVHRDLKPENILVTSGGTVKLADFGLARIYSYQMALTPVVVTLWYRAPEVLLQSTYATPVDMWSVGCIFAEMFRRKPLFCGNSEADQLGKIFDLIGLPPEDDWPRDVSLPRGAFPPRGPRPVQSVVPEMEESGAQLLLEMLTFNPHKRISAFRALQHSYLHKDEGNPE
# Chain of CDK4/CycD1 (P24385 whole entry partner): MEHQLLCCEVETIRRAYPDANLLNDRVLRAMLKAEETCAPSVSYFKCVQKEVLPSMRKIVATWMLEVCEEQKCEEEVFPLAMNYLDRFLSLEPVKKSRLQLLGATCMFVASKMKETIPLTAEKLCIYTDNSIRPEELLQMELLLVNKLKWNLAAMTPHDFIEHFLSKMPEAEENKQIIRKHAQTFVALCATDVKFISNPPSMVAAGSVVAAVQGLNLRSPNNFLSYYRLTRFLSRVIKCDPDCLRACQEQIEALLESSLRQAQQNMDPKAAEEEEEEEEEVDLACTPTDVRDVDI
# Chain of CDK3/CycE1 (Q00526 whole entry): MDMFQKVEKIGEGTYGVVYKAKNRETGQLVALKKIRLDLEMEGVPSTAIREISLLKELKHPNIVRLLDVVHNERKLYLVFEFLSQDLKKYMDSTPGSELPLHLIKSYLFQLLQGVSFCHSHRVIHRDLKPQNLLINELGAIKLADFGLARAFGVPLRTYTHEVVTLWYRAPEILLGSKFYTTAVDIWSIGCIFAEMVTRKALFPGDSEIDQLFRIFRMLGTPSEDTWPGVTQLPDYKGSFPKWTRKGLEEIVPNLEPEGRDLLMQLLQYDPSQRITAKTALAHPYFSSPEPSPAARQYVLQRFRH
# Chain of CDK3/CycE1 (P24864 whole entry, further chain): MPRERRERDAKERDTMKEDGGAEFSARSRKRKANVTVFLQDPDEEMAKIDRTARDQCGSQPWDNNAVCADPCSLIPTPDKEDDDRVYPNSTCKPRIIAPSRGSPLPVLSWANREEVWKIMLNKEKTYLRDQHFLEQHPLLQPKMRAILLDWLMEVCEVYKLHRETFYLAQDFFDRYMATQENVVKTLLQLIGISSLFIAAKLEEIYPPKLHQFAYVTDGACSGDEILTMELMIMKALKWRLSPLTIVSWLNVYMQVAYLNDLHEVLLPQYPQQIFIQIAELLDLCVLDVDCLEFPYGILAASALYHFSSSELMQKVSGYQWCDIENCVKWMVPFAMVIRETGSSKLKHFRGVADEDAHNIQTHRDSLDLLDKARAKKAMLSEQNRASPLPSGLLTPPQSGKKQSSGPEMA
# Chain of CDK9/CycT1 (P50750 whole entry): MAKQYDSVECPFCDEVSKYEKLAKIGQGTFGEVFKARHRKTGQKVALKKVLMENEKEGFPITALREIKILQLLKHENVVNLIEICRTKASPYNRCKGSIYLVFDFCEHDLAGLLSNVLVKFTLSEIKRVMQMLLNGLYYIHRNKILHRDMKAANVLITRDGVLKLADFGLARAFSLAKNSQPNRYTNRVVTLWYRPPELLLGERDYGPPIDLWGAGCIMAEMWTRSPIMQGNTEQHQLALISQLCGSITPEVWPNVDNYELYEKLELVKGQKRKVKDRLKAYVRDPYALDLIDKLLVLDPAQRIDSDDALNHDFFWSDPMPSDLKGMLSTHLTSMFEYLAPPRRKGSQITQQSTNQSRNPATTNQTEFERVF
# Chain of CDK9/CycT1 (O60563 whole entry partner): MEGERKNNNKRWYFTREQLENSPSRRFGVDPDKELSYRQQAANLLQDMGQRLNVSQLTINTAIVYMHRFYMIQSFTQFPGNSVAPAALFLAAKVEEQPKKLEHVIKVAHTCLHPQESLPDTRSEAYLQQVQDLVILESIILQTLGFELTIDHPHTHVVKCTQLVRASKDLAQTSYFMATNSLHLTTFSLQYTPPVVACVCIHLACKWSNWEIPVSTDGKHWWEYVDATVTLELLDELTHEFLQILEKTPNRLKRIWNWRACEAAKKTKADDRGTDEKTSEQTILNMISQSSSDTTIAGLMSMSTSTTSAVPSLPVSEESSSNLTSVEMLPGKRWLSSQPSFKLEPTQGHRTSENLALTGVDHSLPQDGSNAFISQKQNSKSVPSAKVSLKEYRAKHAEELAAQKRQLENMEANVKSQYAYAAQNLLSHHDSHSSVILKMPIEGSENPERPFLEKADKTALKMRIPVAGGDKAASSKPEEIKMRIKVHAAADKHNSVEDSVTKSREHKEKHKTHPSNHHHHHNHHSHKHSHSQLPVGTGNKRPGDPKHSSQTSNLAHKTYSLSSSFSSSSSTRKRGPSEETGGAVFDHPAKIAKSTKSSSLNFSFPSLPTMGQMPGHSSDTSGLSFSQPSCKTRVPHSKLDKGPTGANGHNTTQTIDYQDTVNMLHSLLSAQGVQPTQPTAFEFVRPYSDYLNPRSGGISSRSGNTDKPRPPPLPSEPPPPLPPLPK
IC50 [1] [nM],inhibition at 1 µM [2] [%],inhibition at 10 µM [3] [%],inhibition at 10 µM [4] [%],inhibition at 10 µM [5] [%],inhibition at 10 µM [6] [%],Compound
156,10.2,,,,,"N=C1NC(=O)/C(=C/c2ccc(O)c([N+](=O)[O-])c2)S1 [compound 2, Compound 2]"
199,,36.1,12.4,15.3,14.7,"Cc1cccc(NCN2C(=O)S/C(=C\c3ccccc3)C2=O)c1 [compound 3, Compound 3]"
